Test results as given in US7923465B2, “Cannabinoid receptor ligands, pharmaceutical compositions containing them, and process for their preparation” (priority 2005, dated 2011).

Experiments:
hCB1 = hCB1 (Homo sapiens, UniProt P21554); assay: In vitro binding assay using hCB1-CHO membranes, [3H]-CP-55,940 displacement (Protocol II); set-up: expressed in transfected cells; host or cells: CHO (hCB1-CHO, generated in-house)
Experimental: II. Protocol for In Vitro Assay Using hCB1-CHO Membranes
The reaction was set up in a total volume of 200 μl in PEI (Poly(ethyleneimine)) (0.2%) precoated Millipore GFB (Glass Fibre-B) filter plates. 1 mM stocks of test compounds were prepared in DMSO and tested at a final concentration of 300 nM. The non-specific binding was determined by 0.5 μM CP-55, 940. […] The assay mixture (with or without the test compound) was incubated at 37° C. for 1 hour. The reaction was stopped by rapid filtration under vacuum and the radioactivity on the filters was measured by liquid scintillation counting.

hCB2 = hCB2 (Homo sapiens, UniProt P34972); assay: In vitro binding assay using hCB2-CHO membranes, [3H]-CP-55,940 displacement (Protocol IV); set-up: expressed in transfected cells; host or cells: CHO (hCB2-CHO, generated in-house); details: hCB2-CHO membranes, [3H]-CP-55,940 displacement
Outline: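 Displacement of [3H]-CP-55,940 (0.75 nM) from membranes of CHO cells expressing human CB2 (25-50 μg) was measured in Tris-BSA buffer pH 7.4 with 5 mM MgCl2, 1 mM EDTA, 0.1% BSA, 1 h at 30 °C. Test compounds were at 300 nM final; nonspecific binding defined with 0.5 μM CP-55,940. Values are % displacement of specific binding.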

CB1 = CB1 (Rattus norvegicus, UniProt P20272); assay: Rat CB1 receptor binding using brain membrane, [3H]SR141716A displacement (Protocol I); set-up: CB1 receptor present in a rat brain membrane preparation; from tissue; host or cells: rat brain membrane; details: rat brain membrane, [3H]SR141716A displacement
Sequence of CB1 (P20272 whole entry): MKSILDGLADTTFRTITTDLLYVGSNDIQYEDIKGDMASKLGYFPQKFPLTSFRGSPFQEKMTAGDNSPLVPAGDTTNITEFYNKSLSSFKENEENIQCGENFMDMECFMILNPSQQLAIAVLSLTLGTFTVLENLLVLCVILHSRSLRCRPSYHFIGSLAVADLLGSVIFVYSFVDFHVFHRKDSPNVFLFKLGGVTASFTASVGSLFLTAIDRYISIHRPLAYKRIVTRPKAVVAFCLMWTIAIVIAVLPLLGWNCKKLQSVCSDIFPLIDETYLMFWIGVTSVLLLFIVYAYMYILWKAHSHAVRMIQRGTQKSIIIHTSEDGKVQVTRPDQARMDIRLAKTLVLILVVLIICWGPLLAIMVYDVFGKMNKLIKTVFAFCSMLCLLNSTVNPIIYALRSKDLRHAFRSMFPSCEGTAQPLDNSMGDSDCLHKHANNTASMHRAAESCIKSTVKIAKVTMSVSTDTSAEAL

Sequence of hCB2 (P34972 whole entry): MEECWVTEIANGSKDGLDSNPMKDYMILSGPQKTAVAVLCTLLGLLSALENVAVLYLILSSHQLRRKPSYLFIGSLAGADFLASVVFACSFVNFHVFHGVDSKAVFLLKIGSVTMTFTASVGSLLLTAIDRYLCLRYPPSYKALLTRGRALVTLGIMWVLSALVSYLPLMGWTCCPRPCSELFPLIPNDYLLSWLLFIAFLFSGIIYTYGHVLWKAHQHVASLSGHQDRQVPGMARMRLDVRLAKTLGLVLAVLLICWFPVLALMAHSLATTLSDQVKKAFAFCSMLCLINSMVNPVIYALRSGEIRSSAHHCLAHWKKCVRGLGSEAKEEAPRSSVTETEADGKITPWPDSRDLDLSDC
Sequence of hCB1 (P21554 whole entry): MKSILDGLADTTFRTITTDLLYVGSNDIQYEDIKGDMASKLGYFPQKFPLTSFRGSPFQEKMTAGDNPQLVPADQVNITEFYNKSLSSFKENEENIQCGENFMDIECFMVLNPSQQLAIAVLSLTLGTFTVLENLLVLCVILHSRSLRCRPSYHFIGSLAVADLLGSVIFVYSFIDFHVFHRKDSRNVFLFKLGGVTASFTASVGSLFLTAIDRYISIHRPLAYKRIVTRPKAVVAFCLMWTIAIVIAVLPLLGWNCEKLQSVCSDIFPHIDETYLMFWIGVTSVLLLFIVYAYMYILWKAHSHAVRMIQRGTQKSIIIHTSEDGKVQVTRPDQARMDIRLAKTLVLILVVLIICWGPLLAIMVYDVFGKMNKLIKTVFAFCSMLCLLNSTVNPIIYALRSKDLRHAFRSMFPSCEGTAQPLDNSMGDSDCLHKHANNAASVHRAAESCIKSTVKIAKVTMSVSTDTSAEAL

## O=C(NC12CC3CC(CC(C3)C1)C2)c1nn(-c2ccc(F)cc2F)c2c1C1CC3CC(C1)CC2C3 [Example 144, N(7)-(Adamantan-1-yl)-5-(2,4-difluorophenyl)-5,6-diazatetracyclo[7.3.1.1^3,11.0^4,8]tetradeca-4(8)-6-diene-7-carboxamide]
hCB1
  % Displacement Protocol II: 40.13%
hCB2
  % Displacement Protocol IV: 69.24%

## O=C(NCCc1ccccc1)c1nn(-c2ccc(Cl)cc2)c2c1C1CC3CC(C1)CC2C3 [Example 136, N(7)-(2-Phenylethyl)-5-(4-chlorophenyl)-5,6-diazatetracyclo[7.3.1.1^3,11.0^4,8]tetradeca-4(8)-6-diene-7-carboxamide]
hCB1
  % Displacement Protocol II: 1.01%
CB1
  % Displacement Protocol I: 31.3%
hCB2
  % Displacement Protocol IV: 15.44%

## CN(NC(=O)c1nn(-c2ccc(Cl)cc2Cl)c2c1C1CCC2c2ccccc21)C1CCCCC1 (stereo not drawn) [Example 504, N(12)-[(N′-Cyclohexyl-N′-methyl)amino]-10-(2,4-dichlorophenyl)-10,11-diazatetracyclo[6.5.2.0^2,7.0^9,13]pentadeca-2,4,6,9(13),11-pentaene-12-carboxamide]
hCB1
  % Displacement Protocol II: 62.9%
CB1
  % Displacement Protocol I: 79.7%

## O=C(c1n[nH]c2c1C1CC3CC(CC2C3)C1)N1CCCCC1 [Example 188, 6,7-Diazatetracyclo[7.3.1.1^3,11.0^4,8]tetradeca-4(8)-5-dien-5-yl-piperidinomethanone]
hCB1
  % Displacement Protocol II: 12.5%
CB1
  % Displacement Protocol I: 19.5%
hCB2
  % Displacement Protocol IV: 36.01%

## CC(C)(NC(=O)c1nn(-c2ccc(F)cc2F)c2c1C1CCC2(C)C1(C)C)c1ccccc1 (stereo not drawn) [Example 407]
hCB1
  % Displacement Protocol II: 87.28%
hCB2
  % Displacement Protocol IV: 88.44%

## O=C(NN1CCOCC1)c1nn(-c2ccc(F)cc2F)c2c1C1CCC2C1 (stereo not drawn) [Example 312, 4-[5-(2,4-Difluorophenyl)-4,5-diazatricyclo[5.2.1.0^2,6]deca-2(6),3-dien-3-ylcarboxamido]morpholine]
hCB1
  % Displacement Protocol II: 10.97%
hCB2
  % Displacement Protocol IV: 4.47%

## O=C(NCc1ccc(F)cc1)c1nn(-c2ccc(Cl)cc2)c2c1C1CC3CC(C1)CC2C3 [Example 113, N(7)-(4-Fluorobenzyl)-5-(4-chlorophenyl)-5,6-diazatetracyclo[7.3.1.1^3,11.0^4,8]tetradeca-4(8)-6-diene-7-carboxamide]
hCB1
  % Displacement Protocol II: 27.70%
CB1
  % Displacement Protocol I: 55.9%
hCB2
  % Displacement Protocol IV: 17.02%

## O=C(NCc1ccc(Cl)cc1)c1nn(-c2ccc(Cl)cc2)c2c1C1CC3CC(C1)CC2C3 [Example 112, N(7)-(4*Chlorobenzyl)-5-(4-chlorophenyl)-5,6-diazatetracyclo[7.3.1.1^3,11.0^4,8]tetradeca-4(8)-6-diene-7-carboxamide]
hCB1
  % Displacement Protocol II: 25.76%
CB1
  % Displacement Protocol I: 59.9%

## O=C(NNc1ccc(Cl)cc1)c1nn(-c2ccc(Cl)cc2)c2c1C1CC3CC(C1)CC2C3 [Example 125]
hCB1
  % Displacement Protocol II: 22.07%
CB1
  % Displacement Protocol I: 52.7%
hCB2
  % Displacement Protocol IV: 5.04%

## O=C(NNc1ccc(Cl)c(Cl)c1)c1nn(-c2ccc(Cl)cc2)c2c1C1CCC2C1 (stereo not drawn) [Example 231, N(3)-[(3,4-Dichlorophenyl)amino]-1-(4-chlorophenyl)-4,5,6,7-tetrahydro-H-4,7-methano-indazole-3-carboxamide]
hCB1
  % Displacement Protocol II: 30.79%
CB1
  % Displacement Protocol I: 31.9%

## O=C(NN1CCCCC1)c1n[nH]c2c1C1CC3CC(CC2C3)C1 [Example 187, N(7)-Piperidino-5,6-diazatetracyclo[7.3.1.1^3,11.0^4,8]tetradeca-4(8)-6-diene-7-carboxamide]
hCB1
  % Displacement Protocol II: 15.66%
CB1
  % Displacement Protocol I: 6.0%
hCB2
  % Displacement Protocol IV: 0.7%

## COC(=O)[C@@H](NC(=O)c1nn(-c2ccc(F)cc2F)c2c1C1CCC2C1)c1ccccc1 (stereo partly drawn) [Example 301, Methyl(2S)-2-[5-(2,4-difluorophenyl)-4,5-diazatricyclo[5.2.1.0.^2,6]deca-2(6),3-dien-3-ylcarboxamido]-2-phenylethanoate]
hCB1
  % Displacement Protocol II: 82.54%
hCB2
  % Displacement Protocol IV: 82.09%

## COC(=O)[C@H](NC(=O)c1nn(-c2ccc(F)cc2F)c2c1C1CC3CC(C1)CC2C3)c1ccccc1 [Example 154, Methyl(2R)-2-[7-(2,4-difluorophenyl)-6,7-diazatetracyclo[7.3.1.1^3,11.0^4,8]tetradeca-4(8),5-dien-5-ylcarboxamido]-2-phenylethanoate]
hCB1
  % Displacement Protocol II: 96.1%
hCB2
  % Displacement Protocol IV: 70.19%

## O=C(NN1CCCCC1)c1nn(-c2ccccc2)c2c1C1CC3CC(C1)CC2C3 [Example 169, N(7)-piperidino-5-phenyl-5,6-diazatetracyclo[7.3.1.1^3,11.0^4,8]tetradeca-4(8)-6-diene-7-carboxamide]
hCB1
  % Displacement Protocol II: 29.65%
CB1
  % Displacement Protocol I: 19%

## COC(=O)[C@@H](NC(=O)c1nn(-c2ccc(F)cc2F)c2c1C1CC3CC(C1)CC2C3)c1ccccc1 [Example 155, Methyl(2S)-2-[7-(2,4-difluorophenyl)-6,7-diazatetracyclo[7.3.1.1^3,11.0^4,8]tetradeca-4(8),5-dien-5-ylcarboxamido]-2-phenylethanoate]
hCB1
  % Displacement Protocol II: 96.65%
hCB2
  % Displacement Protocol IV: 72.38%

## CCCCCn1nc(C(=O)NC(C)(C)c2ccccc2)c2c1C1CC3CC(CC2C3)C1 [Example 190b, N(7)-(1-Methyl-1-phenylethyl)-5-pentyl-5,6-diazatetracyclo[7.3.1.1^3,11.0^4,8]tetradeca-4(8)-6-diene-7-carboxamide]
hCB1
  % Displacement Protocol II: 100%
hCB2
  % Displacement Protocol IV: 96.07%

## C[C@@H](NC(=O)c1nn(-c2ccc(Cl)cc2)c2c1C1CC3CC(C1)CC2C3)c1ccccc1 [Example 118]
hCB1
  % Displacement Protocol II: 45.43%
hCB2
  % Displacement Protocol IV: 61.23%

## O=C(NCc1ccc(C(F)(F)F)cc1)c1nn(-c2ccc(Cl)cc2)c2c1C1CCC2C1 (stereo not drawn) [Example 227, N(3)-(4-Trifluoromethylbenzyl)-1-(4-chlorophenyl)-4,5,6,7-tetrahydro-H-4,7-methano-indazole-3-carboxamide]
hCB1
  % Displacement Protocol II: 3.51%
CB1
  % Displacement Protocol I: 25.3%

## COC(=O)[C@H](NC(=O)c1nn(-c2ccc(F)cc2F)c2c1C1CCC2C1)c1ccccc1 (stereo partly drawn) [Example 319, Methyl (2R)-2-[5-(2,4-difluorophenyl)-4,5-diazatricyclo[5.2.1.0.^2,6]deca-2(6),3-dien-3-ylcarboxamido]-2-phenylethanoate]
hCB1
  % Displacement Protocol II: 88.02%
hCB2
  % Displacement Protocol IV: 86.68%

## O=C(NC12CC3CC(CC(C3)C1)C2)c1nn(-c2ccc(F)cc2)c2c1C1CC3CC(C1)CC2C3 [Example 158, N(7)-(Adamantan-1-yl)-5-(4-fluorophenyl)-5,6-diazatetracyclo[7.3.1.1^3,11.0^4,8]tetradeca-4(8)-6-diene-7-carboxamide]
hCB1
  % Displacement Protocol II: 70.12%
hCB2
  % Displacement Protocol IV: 95.4%

## CC1(C)[C@@H]2CC[C@@](C)(C2)[C@@H]1NC(=O)c1nn(-c2ccc(F)cc2F)c2c1C1CC3CC(C1)CC2C3 [Example 145, N(7)-(1S,2endo-1,3,3-Trimethyl-bicyclo[2.2.1]hept-2-yl)-5-(2,4-difluorophenyl)-5,6-diazatetracyclo[7.3.1.1^3,11.0^4,8]tetradeca-4(8)-6-diene-7-carboxamide]
hCB1
  % Displacement Protocol II: 54.01%
hCB2
  % Displacement Protocol IV: 75.88%

## COC(=O)[C@@H](NC(=O)c1nn(-c2ccc(F)cc2F)c2c1C1CCC2C1)c1ccc(F)cc1 (stereo partly drawn) [Example 326, Methyl (2S)-2-[5-(2,4-difluorophenyl)-4,5-diazatricyclo[5.2.1.0.^2,6]deca-2(6),3-dien-3-ylcarboxamido]-2-(4-fluorophenyl)ethanoate]
hCB1
  % Displacement Protocol II: 73.99%
hCB2
  % Displacement Protocol IV: 99.18%

## CN(NC(=O)c1nn(-c2ccc(Cl)cc2)c2c1C1CC3CC(C1)CC2C3)c1ccc(Cl)cc1Cl.Cl [Example 128]
hCB1
  % Displacement Protocol II: 37.28%
CB1
  % Displacement Protocol I: 83%

## O=C(Nc1ccccc1)c1nn(-c2ccccc2)c2c1C1CC3CC(C1)CC2C3 [Example 168, N(7)-Phenyl-5-phenyl-5,6-diazatetracyclo[7.3.1.1^3,11.0^4,8]tetradeca-4(8)-6-diene-7-carboxamide]
hCB1
  % Displacement Protocol II: 11.47%
CB1
  % Displacement Protocol I: 37%

## C[C@H](NC(=O)c1nn(-c2ccc(F)cc2F)c2c1C1CC3CC(C1)CC2C3)c1ccccc1 [Example 146]
hCB1
  % Displacement Protocol II: 60.51%
hCB2
  % Displacement Protocol IV: 68.16%

## CC1(C)C2CC[C@@](C)(C2)C1NC(=O)c1nn(-c2ccc(Cl)cc2)c2c1C1CC3CC(C1)CC2C3 (stereo partly drawn) [Example 110, N(7)-(1S,2endo-1,3,3-Trimethyl-bicyclo[2.2.1]hept-2-yl)-5-(4-chlorophenyl)-5,6-diazatetracyclo[7.3.1.1^3,11.0^4,8]tetradeca-4(8)-6-diene-7-carboxamide]
hCB1
  % Displacement Protocol II: 37.69%
hCB2
  % Displacement Protocol IV: 60.7%
